Target: T1, hCRTH2 receptor (Homo sapiens, UniProt Q9Y5Y4)
T1 construct: expressed in transfected cells; host or cells: HEK293
T1 sequence (Q9Y5Y4 1-395): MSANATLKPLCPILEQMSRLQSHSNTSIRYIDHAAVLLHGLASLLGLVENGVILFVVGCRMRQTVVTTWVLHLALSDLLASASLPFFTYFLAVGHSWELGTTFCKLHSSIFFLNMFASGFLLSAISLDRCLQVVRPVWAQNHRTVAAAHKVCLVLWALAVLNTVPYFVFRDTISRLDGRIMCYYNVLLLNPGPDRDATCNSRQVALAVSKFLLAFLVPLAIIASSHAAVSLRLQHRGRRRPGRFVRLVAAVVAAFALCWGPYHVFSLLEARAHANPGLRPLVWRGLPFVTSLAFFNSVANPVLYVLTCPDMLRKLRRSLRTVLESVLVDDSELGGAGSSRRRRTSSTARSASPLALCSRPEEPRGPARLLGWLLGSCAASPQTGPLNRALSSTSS
Assay: Radioligand displacement assay (3H-PGD2) on hCRTH2 receptor membranes
Format: binding
Settings: antagonistic activity; 3H-PGD2 displacement on HEK293-hCRTH2 membrane fragments

Row | SMILES | IC50 [nM]
1 | O=C(O)COc1ccc(Cl)cc1C1c2ccccc2CCN1C(=O)[C@@H]1C[C@H]1c1cccc(Cl)c1 (single isomer, unassigned; diastereoisomer 1) [Example 151, (±)-(4-Chloro-2-{2-[(trans)-2-(3-chloro-phenyl)-cyclopropanecarbonyl]-1,2,3,4-tetrahydro-isoquinolin-1-yl}-phenoxy)-acetic acid (diastereoisomer 1)] | 264
2 | O=C(O)COc1ccc(Cl)cc1C1c2ccccc2CCN1C(=O)[C@@H]1C[C@H]1c1cccc(Cl)c1 (single isomer, unassigned; diastereoisomer 2) [Example 152, (±)-(4-Chloro-2-{2-[(trans)-2-(3-chloro-phenyl)-cyclopropanecarbonyl]-1,2,3,4-tetrahydro-isoquinolin-1-yl}-phenoxy)-acetic acid (diastereoisomer 2)] | 33.4
3 | C[C@H](Oc1ccc(F)cc1C1c2ccccc2CCN1C(=O)OCc1ccccc1)C(=O)O (stereo partly drawn) [Example 2, 1-[2-((S)-1-Carboxy-ethoxy)-5-fluoro-phenyl]-3,4-dihydro-1H-isoquinoline-2-carboxylic acid benzyl ester] | 499
4 | C[C@@H](Oc1ccc(F)cc1C1c2ccccc2CCN1C(=O)OCc1ccccc1)C(=O)O (stereo partly drawn) [Example 8, 1-[2-((R)-1-Carboxy-ethoxy)-5-fluoro-phenyl]-3,4-dihydro-1H-isoquinoline-2-carboxylic acid benzyl ester] | 39.5
5 | C[C@@H](Oc1ccc(C#N)cc1C1c2ccccc2CCN1C(=O)OCc1ccccc1)C(=O)O (stereo partly drawn) [Example 13, 1-[2-((R)-1-Carboxy-ethoxy)-5-cyano-phenyl]-3,4-dihydro-1H-isoquinoline-2-carboxylic acid benzyl ester] | 11
6 | N#Cc1ccc(OCC(=O)O)c([C@@H]2c3ccccc3CCN2C(=O)OCc2ccccc2)c1 [Example 25, (S)-1-(2-Carboxymethoxy-5-cyano-phenyl)-3,4-dihydro-1H-isoquinoline-2-carboxylic acid benzyl ester] | 2.52
7 | O=C(O)COc1ccc(Cl)cc1[C@@H]1c2ccccc2CCN1C(=O)OCc1ccccc1 [Example 26, (S)-1-(2-Carboxymethoxy-5-chloro-phenyl)-3,4-dihydro-1H-isoquinoline-2-carboxylic acid benzyl ester] | 4.52
8 | C[C@@H](Oc1ccc(F)cc1[C@@H]1c2ccccc2CCN1C(=O)OCc1ccccc1)C(=O)O [Example 27, (S)-1-[2-((R)-1-Carboxy-ethoxy)-5-fluoro-phenyl]-3,4-dihydro-1H-isoquinoline-2-carboxylic acid benzyl ester] | 12.1
9 | C[C@H](Oc1ccc(F)cc1[C@@H]1c2ccccc2CCN1C(=O)OCc1ccccc1)C(=O)O [Example 28, (S)-1-[2-((S)-1-Carboxy-ethoxy)-5-fluoro-phenyl]-3,4-dihydro-1H-isoquinoline-2-carboxylic acid benzyl ester] | 443
10 | O=C(O)COc1ccc(Cl)cc1[C@@H]1c2cccc(F)c2CCN1C(=O)OCc1ccccc1 [Example 31, (S)-1-(2-Carboxymethoxy-5-chloro-phenyl)-5-fluoro-3,4-dihydro-1H-isoquinoline-2-carboxylic acid benzyl ester] | 1.41
11 | N#Cc1ccc(OCC(=O)O)c([C@@H]2c3cccc(F)c3CCN2C(=O)OCc2ccccc2)c1 [Example 32, (S)-1-(2-Carboxymethoxy-5-cyano-phenyl)-5-fluoro-3,4-dihydro-1H-isoquinoline-2-carboxylic acid benzyl ester] | 1.99
12 | O=C(O)COc1ccc(Cl)cc1C1c2ccccc2CCN1C(=O)C1CCc2ccccc2C1 (centres unmarked) [Example 77, {4-Chloro-2-[2-(1,2,3,4-tetrahydro-naphthalene-2-carbonyl)-1,2,3,4-tetrahydro-isoquinolin-1-yl]-phenoxy}-acetic acid] | 134
13 | O=C(O)COc1ccc(Cl)cc1C1c2ccccc2CCN1C(=O)CCN1C(=O)CSC1c1ccccc1 (centres unmarked) [Example 84, (4-Chloro-2-{2-[3-(4-oxo-2-phenyl-thiazolidin-3-yl)-propionyl]-1,2,3,4-tetrahydro-isoquinolin-1-yl}-phenoxy)-acetic acid] | 28.4
14 | O=C(O)COc1ccc(Cl)cc1[C@@H]1c2ccccc2CCN1C(=O)OCc1ccccc1Cl [Example 174, (S)-1-(2-Carboxymethoxy-5-chloro-phenyl)-3,4-dihydro-1H-isoquinoline-2-carboxylic acid 2-chloro-benzyl ester] | 5.75
15 | C[C@@H](Oc1ccc(Cl)cc1C1c2ccccc2CCN1C(=O)OCc1ccccc1)C(=O)O (stereo partly drawn) [Example 220, 1-[2-((R)-1-Carboxy-ethoxy)-5-chloro-phenyl]-3,4-dihydro-1H-isoquinoline-2-carboxylic acid benzyl ester] | 21
16 | O=C(O)COc1ccc(F)cc1[C@@H]1c2ccccc2CCN1C(=O)OCc1ccccc1 [Example 221, (S)-1-(2-Carboxymethoxy-5-fluoro-phenyl)-3,4-dihydro-1H-isoquinoline-2-carboxylic acid benzyl ester] | 2.91

Row | SMILES | IC50 [nM]
17 | CC(C)(C)OC(=O)N1CCc2ccccc2[C@H]1c1cc(Cl)ccc1OCC(=O)O [Example 228] | 71.3
18 | O=C(O)COc1ccc(Cl)cc1[C@@H]1c2ccc(F)c(F)c2CCN1C(=O)OCc1ccccc1 [Example 229, (S)-1-(2-Carboxymethoxy-5-chloro-phenyl)-5,6-difluoro-3,4-dihydro-1H-isoquinoline-2-carboxylic acid benzyl ester] | 4.95
19 | O=C(O)COc1ccc(Cl)cc1C1c2ccccc2CN1C(=O)OCc1ccccc1 (centres unmarked) [Example 231, 1-(2-Carboxymethoxy-5-chloro-phenyl)-1,3-dihydro-isoindole-2-carboxylic acid benzyl ester] | 2.65
20 | O=C(O)COc1ccc(Cl)cc1[C@@H]1c2ccccc2CCN1C(=O)[C@@H]1C[C@H]1c1ccccc1 [Example 232, {4-Chloro-2-[(S)-2-((1R,2R)-2-phenyl-cyclopropanecarbonyl)-1,2,3,4-tetrahydro-isoquinolin-1-yl]-phenoxy}-acetic acid] | 1.39
21 | C[C@H](OC(=O)N1CCc2ccccc2[C@H]1c1cc(Cl)ccc1OCC(=O)O)c1ccccc1 [Example 261] | 97.1
22 | O=C(O)COc1ccc(Cl)cc1[C@@H]1c2ccccc2CCN1C(=O)OCc1nccs1 [Example 273, (S)-1-(2-Carboxymethoxy-5-chloro-phenyl)-3,4-dihydro-1H-isoquinoline-2-carboxylic acid thiazol-2-ylmethyl ester] | 2.04
23 | Cc1ncsc1CCOC(=O)N1CCc2ccccc2[C@H]1c1cc(Cl)ccc1OCC(=O)O [Example 274, (S)-1-(2-Carboxymethoxy-5-chloro-phenyl)-3,4-dihydro-1H-isoquinoline-2-carboxylic acid 2-(4-methyl-thiazol-5-yl)-ethyl ester] | 2.42
24 | Cc1cnc(COC(=O)N2CCc3ccccc3[C@H]2c2cc(Cl)ccc2OCC(=O)O)s1 [Example 275, (S)-1-(2-Carboxymethoxy-5-chloro-phenyl)-3,4-dihydro-1H-isoquinoline-2-carboxylic acid 5-methyl-thiazol-2-ylmethyl ester] | 5.01
25 | Cc1csc(COC(=O)N2CCc3ccccc3[C@H]2c2cc(Cl)ccc2OCC(=O)O)n1 [Example 276, (S)-1-(2-Carboxymethoxy-5-chloro-phenyl)-3,4-dihydro-1H-isoquinoline-2-carboxylic acid 4-methyl-thiazol-2-ylmethyl ester] | 1.82
26 | Cc1ncc(COC(=O)N2CCc3ccccc3[C@H]2c2cc(Cl)ccc2OCC(=O)O)s1 [Example 277, (S)-1-(2-Carboxymethoxy-5-chloro-phenyl)-3,4-dihydro-1H-isoquinoline-2-carboxylic acid 2-methyl-thiazol-5-ylmethyl ester] | 0.77
27 | Cc1nc(COC(=O)N2CCc3ccccc3[C@H]2c2cc(Cl)ccc2OCC(=O)O)cs1 [Example 278, (S)-1-(2-Carboxymethoxy-5-chloro-phenyl)-3,4-dihydro-1H-isoquinoline-2-carboxylic acid 2-methyl-thiazol-4-ylmethyl ester] | 1.28
28 | Cc1cc(COC(=O)N2CCc3ccccc3[C@H]2c2cc(Cl)ccc2OCC(=O)O)on1 [Example 279, (S)-1-(2-Carboxymethoxy-5-chloro-phenyl)-3,4-dihydro-1H-isoquinoline-2-carboxylic acid 3-methyl-isoxazol-5-ylmethyl ester] | 0.87
29 | Cc1conc1COC(=O)N1CCc2ccccc2[C@H]1c1cc(Cl)ccc1OCC(=O)O [Example 280, (S)-1-(2-Carboxymethoxy-5-chloro-phenyl)-3,4-dihydro-1H-isoquinoline-2-carboxylic acid 4-methyl-isoxazol-3-ylmethyl ester] | 0.35
30 | Cc1noc(C)c1COC(=O)N1CCc2ccccc2[C@H]1c1cc(Cl)ccc1OCC(=O)O [Example 281, (S)-1-(2-Carboxymethoxy-5-chloro-phenyl)-3,4-dihydro-1H-isoquinoline-2-carboxylic acid 3,5-dimethyl-isoxazol-4-ylmethyl ester] | 4.8
31 | O=C(O)COc1ccc(Cl)cc1[C@@H]1c2ccccc2CCN1C(=O)OCc1cnccn1 [Example 282, (S)-1-(2-Carboxymethoxy-5-chloro-phenyl)-3,4-dihydro-1H-isoquinoline-2-carboxylic acid pyrazin-2-ylmethyl ester] | 3.96
32 | O=C(O)COc1ccc(Cl)cc1[C@@H]1c2ccccc2CCN1C(=O)OCc1ccncn1 [Example 283, (S)-1-(2-Carboxymethoxy-5-chloro-phenyl)-3,4-dihydro-1H-isoquinoline-2-carboxylic acid pyrimidin-4-ylmethyl ester] | 7.56

From US8575158B2, “1-phenyl-substituted heterocyclyl derivatives and their use as prostaglandin D2 receptor modulators” (Actelion Pharmaceuticals Ltd., priority 2010, dated 2013)
